Measured values: US20250136578A1 (Kolm Therapeutics Inc., priority 2023, published 2025)

Key:
AR / CBP ternary complex = AR / CBP ternary complex (Homo sapiens, UniProt P10275+Q92793); test: Ternary complex formation assay (sandwich ELISA, AR capture, CBP antibody detection) in VCaP cell lysates; type: cell-based; conditions: treated 1.5 hours, rabbit CBP or p300 antibody detection, average, read-out: Average Ternary Complex
In short: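 Sandwich ELISA: plates were coated with anti-AR antibody (AR441) and given lysates of VCaP cells treated 1.5 h with bifunctional compound in charcoal-stripped serum. Co-captured CBP or p300 was probed with rabbit mAbs and HRP secondary. Chemifluorescent signal (ex 570/em 585) was read at 0, 5 and 15 min.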

VCaP cells = test: VCaP growth inhibition assay (CTG); type: cell-based; conditions: Homo sapiens, 216 h, 30 pM R1881, 9 days
In short: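 Growth was measured by CTG luminescence after a 9-day exposure of VCaP cells to compound (final 10 fM–100 nM, fivefold steps) in the presence of 30 pM final R1881, in phenol red-free DMEM/5% CSS. IC50 values were derived by nonlinear 4-parameter regression of RLU against concentration.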

Chain of AR / CBP ternary complex (P10275 whole entry): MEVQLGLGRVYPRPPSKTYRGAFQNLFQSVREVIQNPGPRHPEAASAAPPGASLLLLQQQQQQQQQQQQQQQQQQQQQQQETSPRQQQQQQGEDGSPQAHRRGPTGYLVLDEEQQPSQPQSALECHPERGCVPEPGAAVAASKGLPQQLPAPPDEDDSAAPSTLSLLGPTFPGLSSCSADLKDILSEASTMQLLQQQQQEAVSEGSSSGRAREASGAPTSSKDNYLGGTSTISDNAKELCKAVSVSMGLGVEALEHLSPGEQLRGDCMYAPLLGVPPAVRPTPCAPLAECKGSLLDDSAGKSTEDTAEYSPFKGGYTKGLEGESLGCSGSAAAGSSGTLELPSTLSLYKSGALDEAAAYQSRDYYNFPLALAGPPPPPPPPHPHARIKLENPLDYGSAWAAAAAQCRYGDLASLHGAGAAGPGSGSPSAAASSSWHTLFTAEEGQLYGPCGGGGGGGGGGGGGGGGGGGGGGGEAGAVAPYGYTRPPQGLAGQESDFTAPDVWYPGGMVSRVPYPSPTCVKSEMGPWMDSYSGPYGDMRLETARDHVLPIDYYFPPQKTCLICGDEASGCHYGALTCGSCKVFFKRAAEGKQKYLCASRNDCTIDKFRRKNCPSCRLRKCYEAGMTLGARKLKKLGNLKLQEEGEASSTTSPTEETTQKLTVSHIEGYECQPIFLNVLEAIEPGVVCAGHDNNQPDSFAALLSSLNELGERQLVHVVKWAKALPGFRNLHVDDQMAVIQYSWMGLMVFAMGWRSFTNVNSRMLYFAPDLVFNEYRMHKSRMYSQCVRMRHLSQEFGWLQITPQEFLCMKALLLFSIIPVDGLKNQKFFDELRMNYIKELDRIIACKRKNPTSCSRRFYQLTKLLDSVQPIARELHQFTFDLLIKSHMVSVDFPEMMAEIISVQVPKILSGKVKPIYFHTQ
Chain of AR / CBP ternary complex (Q92793 2-2442): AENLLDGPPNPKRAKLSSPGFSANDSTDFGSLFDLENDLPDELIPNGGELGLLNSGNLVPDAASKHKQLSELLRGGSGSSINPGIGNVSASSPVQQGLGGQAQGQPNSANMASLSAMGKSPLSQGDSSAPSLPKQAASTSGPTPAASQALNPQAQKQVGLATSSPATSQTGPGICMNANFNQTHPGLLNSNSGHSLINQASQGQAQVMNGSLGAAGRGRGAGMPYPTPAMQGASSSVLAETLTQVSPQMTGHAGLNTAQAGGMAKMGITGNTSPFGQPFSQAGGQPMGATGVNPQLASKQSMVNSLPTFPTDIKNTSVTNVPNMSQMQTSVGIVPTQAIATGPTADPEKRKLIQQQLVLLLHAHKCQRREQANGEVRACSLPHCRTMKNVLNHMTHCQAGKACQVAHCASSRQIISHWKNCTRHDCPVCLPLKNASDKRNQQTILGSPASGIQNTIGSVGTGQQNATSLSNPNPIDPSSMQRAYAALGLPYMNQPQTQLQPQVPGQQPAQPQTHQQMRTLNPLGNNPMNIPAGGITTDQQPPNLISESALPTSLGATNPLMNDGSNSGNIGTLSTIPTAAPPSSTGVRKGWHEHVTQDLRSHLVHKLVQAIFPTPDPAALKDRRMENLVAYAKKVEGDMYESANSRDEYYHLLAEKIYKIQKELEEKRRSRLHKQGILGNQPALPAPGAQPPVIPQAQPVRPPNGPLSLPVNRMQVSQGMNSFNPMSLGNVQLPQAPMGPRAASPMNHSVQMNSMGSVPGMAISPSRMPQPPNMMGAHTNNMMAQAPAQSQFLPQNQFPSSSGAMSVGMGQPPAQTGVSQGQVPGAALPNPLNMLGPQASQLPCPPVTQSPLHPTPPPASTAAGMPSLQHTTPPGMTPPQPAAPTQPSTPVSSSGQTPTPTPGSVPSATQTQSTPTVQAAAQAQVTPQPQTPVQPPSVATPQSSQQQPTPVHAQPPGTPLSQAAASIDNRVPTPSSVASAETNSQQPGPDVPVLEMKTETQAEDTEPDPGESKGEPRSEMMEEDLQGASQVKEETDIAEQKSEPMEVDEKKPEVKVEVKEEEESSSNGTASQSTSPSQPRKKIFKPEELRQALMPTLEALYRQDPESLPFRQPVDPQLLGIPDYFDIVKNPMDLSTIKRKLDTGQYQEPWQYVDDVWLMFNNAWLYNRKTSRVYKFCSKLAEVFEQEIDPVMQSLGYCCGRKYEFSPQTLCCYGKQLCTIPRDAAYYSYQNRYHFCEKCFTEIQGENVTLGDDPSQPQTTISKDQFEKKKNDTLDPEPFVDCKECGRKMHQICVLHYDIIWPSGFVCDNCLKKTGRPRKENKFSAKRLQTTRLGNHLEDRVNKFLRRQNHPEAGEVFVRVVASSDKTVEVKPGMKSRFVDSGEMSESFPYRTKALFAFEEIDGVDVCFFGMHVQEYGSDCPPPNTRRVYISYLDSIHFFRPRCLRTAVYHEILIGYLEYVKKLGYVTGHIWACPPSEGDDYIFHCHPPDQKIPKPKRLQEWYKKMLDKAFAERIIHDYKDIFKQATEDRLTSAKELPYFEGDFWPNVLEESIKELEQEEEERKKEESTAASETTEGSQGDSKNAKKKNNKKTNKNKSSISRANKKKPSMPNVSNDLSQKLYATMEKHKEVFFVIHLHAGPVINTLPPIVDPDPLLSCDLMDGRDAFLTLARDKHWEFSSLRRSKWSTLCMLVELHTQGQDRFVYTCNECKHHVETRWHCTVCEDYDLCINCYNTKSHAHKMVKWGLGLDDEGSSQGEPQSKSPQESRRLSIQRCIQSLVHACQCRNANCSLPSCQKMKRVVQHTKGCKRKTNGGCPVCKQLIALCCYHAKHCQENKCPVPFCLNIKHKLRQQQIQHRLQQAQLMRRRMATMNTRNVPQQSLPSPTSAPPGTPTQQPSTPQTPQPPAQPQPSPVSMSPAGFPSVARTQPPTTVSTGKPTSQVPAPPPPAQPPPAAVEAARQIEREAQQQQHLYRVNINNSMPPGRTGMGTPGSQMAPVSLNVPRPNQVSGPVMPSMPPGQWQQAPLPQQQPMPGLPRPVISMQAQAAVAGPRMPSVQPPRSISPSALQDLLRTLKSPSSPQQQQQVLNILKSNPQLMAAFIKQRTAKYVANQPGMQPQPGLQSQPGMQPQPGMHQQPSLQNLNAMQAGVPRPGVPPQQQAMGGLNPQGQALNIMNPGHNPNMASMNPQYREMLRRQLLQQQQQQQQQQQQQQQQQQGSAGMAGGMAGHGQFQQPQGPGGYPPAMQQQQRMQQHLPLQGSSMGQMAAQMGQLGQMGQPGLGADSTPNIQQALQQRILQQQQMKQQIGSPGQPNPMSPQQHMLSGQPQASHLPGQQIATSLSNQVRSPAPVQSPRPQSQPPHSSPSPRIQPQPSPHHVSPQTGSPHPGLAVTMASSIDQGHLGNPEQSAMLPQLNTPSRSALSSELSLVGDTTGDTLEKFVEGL

Row | EC50 (AR / CBP ternary complex) [nM] | IC50 (VCaP cells) [nM] | SMILES
1 | 1 to 10 | 1 to 100 | Cc1cc2c(N3CCN(C)c4cc(C5CC5)ncc43)cc(N3CCN(CC4CCN(c5ccc(C(=O)N[C@H]6CC[C@H](Oc7ccc(C#N)c(Cl)c7)CC6)nn5)CC4)CC3)cc2n(C)c1=O [Compound 138, N-[4-(3-chloro-4-cyano-phenoxy)cyclohexyl]-6-[4-[[4-[5-(7-cyclopropyl-1-methyl-2,3-dihydropyrido[3,4-b]pyrazin-4-yl)-1,3-dimethyl-2-oxo-7-quinolyl]piperazin-1-yl]methyl]-1-piperidyl]pyridazine-3-carboxamide]
2 | 1 to 10 | 0.1 to 1 | C[C@@H]1CC(=O)Nc2cc(C3CCN(CC4CCN(c5ccc(C(=O)N[C@H]6CC[C@H](Oc7ccc(C#N)c(Cl)c7)CC6)nn5)CC4)CC3)cc(-c3ccc4c(c3)c(C3CC3)nn4C)c2N1 [Compound 88, N-[4-(3-chloro-4-cyano-phenoxy)cyclohexyl]-6-[4-[[4-[(4R)-6-(3-cyclopropyl-1-methyl-indazol-5-yl)-4-methyl-2-oxo-1,3,4,5-tetrahydro-1,5-benzodiazepin-8-yl]-1-piperidyl]methyl]-1-piperidyl]pyridazine-3-carboxamide]
3 | < 1 | ≤ 0.1 | CC(=O)N1CCc2c(c(N3CCCc4cc(-c5cnn(C)c5)c(C(F)F)cc43)nn2C2CC3(CCN(C4CCN(c5ccc(C(=O)N[C@H]6CC[C@H](Oc7ccc(C#N)c(Cl)c7)CC6)nn5)CC4)CC3)C2)C1 [Compound 239, 6-[4-[2-[5-acetyl-3-[7-(difluoromethyl)-6-(1-methylpyrazol-4-yl)-3,4-dihydro-2H-quinolin-1-yl]-6,7-dihydro-4H-pyrazolo[4,3-c]pyridin-1-yl]-7-azaspiro[3.5]nonan-7-yl]-1-piperidyl]-N-[4-(3-chloro-4-cyano-phenoxy)cyclohexyl]pyridazine-3-carboxamide]
4 | < 1 | 0.1 to 1 | CC(=O)N1CCc2c(c(-c3cccc4cc(-c5cnn(CC6CC7(C6)CN(c6ccc(C(=O)N[C@H]8CC[C@H](Oc9ccc(C#N)c(Cl)c9)CC8)nn6)C7)c5)ncc34)nn2C2CCOCC2)C1 [Compound 46, 6-[6-[[4-[8-(5-acetyl-1-tetrahydropyran-4-yl-6,7-dihydro-4H-pyrazolo[4,3-c]pyridin-3-yl)-3-isoquinolyl]pyrazol-1-yl]methyl]-2-azaspiro[3.3]heptan-2-yl]-N-[4-(3-chloro-4-cyano-phenoxy)cyclohexyl]pyridazine-3-carboxamide]
5 | < 1 | ≤ 0.1 | CC(=O)N1CCc2c(c(N3CCCc4cc(-c5cnn(C)c5)c(C(F)F)cc43)nn2C2CCN(CC3CCN(c4ccc(C(=O)N[C@H]5CC[C@H](Oc6ccc(C#N)c(Cl)c6)CC5)cn4)CC3)CC2)C1 [Compound 18, 6-[4-[[4-[5-acetyl-3-[7-(difluoromethyl)-6-(1-methylpyrazol-4-yl)-3,4-dihydro-2H-quinolin-1-yl]-6,7-dihydro-4H-pyrazolo[4,3-c]pyridin-1-yl]-1-piperidyl]methyl]-1-piperidyl]-N-[4-(3-chloro-4-cyano-phenoxy)cyclohexyl]pyridine-3-carboxamide]
6 | < 1 | ≤ 0.1 | CC(=O)N1CCc2c(c(N3CCCc4cc(-c5cnn(C)c5)c(C(F)F)cc43)nn2[C@H]2CC[C@H](N3CCN(c4ccc(C(=O)N[C@H]5CC[C@H](Oc6ccc(C#N)c(Cl)c6)CC5)nn4)CC3)CC2)C1 [Compound 250, 6-[4-[4-[5-acetyl-3-[7-(difluoromethyl)-6-(1-methylpyrazol-4-yl)-3,4-dihydro-2H-quinolin-1-yl]-6,7-dihydro-4H-pyrazolo[4,3-c]pyridin-1-yl]cyclohexyl]piperazin-1-yl]-N-[4-(3-chloro-4-cyano-phenoxy)cyclohexyl]pyridazine-3-carboxamide]
